{
  "source": "patent US6184254A",
  "about": "“Methods of identifying modulators of perivascular sensory nerve Ca2+ receptors” (priority 1998, dated 2001)",
  "key": {"neurogenic inflammation": {"test_system": "neurogenic inflammation", "conditions": "denervation and desensitization by treatment with capsaicin; cited from earlier work"}, "[1]": {"test_system": "CGRP nerve fiber density of mesenteric resistance arteries", "assay": "CGRP nerve staining/density after capsaicin-induced sensory denervation", "type": "in vivo, rat", "protocol": "(§1) Pregnant rats are received at 15 days gestation and pups are delivered in a vivarium. On the first and second days of life, each pup is lightly anesthetized with halothane and given s.c. injection of capsaicin (50 mg/kg) or vehicle. The rats are then kept until 7-9 weeks of age at which time they are euthanized and tissue isolated. Sub-acute regional nerve destruction is performed. […] The would is closed and the rats are allowed to recover for three days following which branches leading from the treated vessel segments are harvested for study. For each procedure, two methods are used to verify denervation of the arteries. One is a functional assay in which arteries isolated from sham or denervated rats are electrically stimulated under conditions that selectively activate perivascular sensory dilator nerves; the second is an immunocytochemical approach.\nAt 8 weeks of age the rats were killed and whole mount preparations of mesenteric resistance arteries were prepared, stained with polyclonal anti-calcitonin gene related peptide (CGRP), which is the primary sensory nerve transmitter, and quantified using stereomorphologic methods (Schmidt-Schoenbein et al., 1977)."}, "perivascular CaR": {"test_system": "perivascular CaR", "assay": "Perivascular CaR expression after capsaicin-induced denervation", "type": "in vivo, rat", "conditions": "KK3 antiserum", "protocol": "as §1, with “One is a functional assay in which arteries isolated from sham or denervated rats are electrically stimulated under conditions that selectively activate perivascular sensory dilator nerves; the second is an immunocytochemical approach.” left out\nThe effect of sensory denervation on perivascular nerve CaR expression is assessed using western blot analysis. […] The membranes are then stained with monoclonal anti-parathyroid CaR (1:7500) and anti-smooth muscle α-actin, then visualized using the enhanced chemiluminescence, and quantified using laser densitometry. The relative expression of CaR in each sample is then assessed as the ratio of the density of CaR staining; α-actin staining. […]\nThe results have been presented (Mupanomunda et al., 1997). Additional studies quantify the effect of capsaicin-induced denervation on CaR content using western blot analysis."}, "[2]": {"test_system": "Ca^2+-induced relaxation of mesenteric resistance arteries", "assay": "Inhibition of Ca2+-induced relaxation of mesenteric resistance arteries by antagonists or denervation", "set-up": "species or system rat"}},
  "note": "“Also recorded” adds a separate entry of the source.",
  "data": [
    {"compound": "COc1cc(CNC(=O)CCCC/C=C/C(C)C)ccc1O", "note": "[capsaicin]", "values": [
      {"measurement": "effect of treatment on neurogenic inflammation", "setting": "neurogenic inflammation", "result": "prevented"},
      {"measurement": "effect on staining for CGRP", "setting": "[1]; capsaicin denervation", "result": "significantly decreases"},
      {"measurement": "reduction in CGRP nerve fiber density", "setting": "[1]; neonatal capsaicin (50 mg/kg s.c.), 8 weeks of age", "result": 40, "unit": "%"},
      {"measurement": "effect on staining for perivascular CaR", "setting": "perivascular CaR", "result": "significantly decreases"},
      {"measurement": "effect on Ca2+-induced relaxation", "setting": "[2]; 20 minutes pre-treatment, 10 μM capsaicin", "result": "inhibited/reversed"},
      {"measurement": "effect on Ca2+-induced relaxation", "setting": "[2]; chronic capsaicin-induced sensory denervation", "result": "attenuates; also recorded: significantly attenuated"}
    ]}
  ]
}
